From patent US20130072505A1, “6,9-Disubstituted Purine Derivatives and Their Use for Treating Skin” (priority 2006, published 2013)
“Also recorded” adds a separate entry of the source. Like-named read-outs stand apart in the source and are kept apart here. Marks after values point to notes of the source that are not given here.

Columns and labels:
breast carcinoma MCF-7 = assay: in vitro cytotoxic activity, Calcein AM microtiter assay; type: cell-based; settings: Homo sapiens, MCF7; 72 hours; highest concentration 166.7 μM
Protocol: (§1) In vitro cytotoxic activity of several of the 6,9-disubstituted purine derivatives of this invention was determined using a microtiter assay with Calcein AM and a panel of cell lines of different histogenetic and species origin; kinetin was also examined as a control. Because only metabolically active cells cleave Calcein AM (tetraacetoxymethyl ester of calcein), the intracellular concentration of calcein corresponds to the number of vital cells in the culture.
(§2) The following cell lines were used: human osteosarcoma (HOS); breast carcinoma MCF-7; human myeloid leukemia K-562; and mouse fibroblasts NIH3T3. The cells were maintained in Nunc/Corning 80 cm^2 plastic tissue culture flasks and cultured in cell culture medium (DMEM with 5 g/l glucose, 2 mM glutamine, 100 U/ml penicillin, 100 μg/ml streptomycin, 10% fetal calf serum, and sodium bicarbonate).
(§3) The cell suspensions were prepared and diluted according to the particular cell type and the expected target cell density (2.500-30.000 cells per well based on cell growth characteristics) were added by pipette (80 μl) into 96/well microtiter plates. Inoculates were allowed a pre-incubation period of 24 hours at 37° C. and 5% CO2 for stabilization. Four-fold dilutions of the intended test concentration were added at time zero in 20 μl aliquots to the microtiter plate wells. The test compounds were generally evaluated at six 4-fold dilutions. The highest well concentration used in the present study was 166.7 μM. All samples were examined in triplicates. Incubations of cells with the tested compounds was for 72 hours at 37° C., in 5% CO2 atmosphere and 100% humidity. At the end of the incubation period, Calcein AM was added to a final concentration of 1 μg/ml incubated for 1 hour. Fluorescence intensity (FI) was measured with a Labsystem FIA Reader Fluoroscan Ascent (UK). The cell survival (GI50) was calculated using the following equation: GI50=([…])/(mean FIcontrol well−mean FIblank)×100%. The GI50 value, the drug concentration lethal to 50% of the cells, was calculated from the obtained dose response curves.

mouse fibroblasts NIH3T3 = assay: as above; type: cell-based; settings: read-out: GI50 NIH-3T3
Protocol: as §1, §2, §3

human osteosarcoma (HOS) = assay: as above; type: cell-based; settings: 72 hours, highest concentration 166.7 μM
Protocol: as §1, §2, §3

[1] = system: human myeloid leukemia K-562; assay: as above; type: cell-based; settings: K562, 72 hours, highest concentration 166.7 μM
Protocol: as §1, §2, §3

[2] = system: cultured human fibroblasts; settings: cited from earlier work
[3] = system: Human diploid fibroblasts (HCA cells); assay: inhibition of senescence, β-galactosidase staining; type: cell-based; settings: test compounds about 50 μM at each passage; for Senescent Cells (%) HCA25: passage 25; for Senescent Cells (%) HCA80: passage 80
Protocol: Inhibition of senescence by several of the 6,9-disubstituted purine derivatives of this invention was determined; kinetin was also evaluated as a control. […] The medium used for the cell cultivation was removed, the cells were washed twice in PBS, and fixed in 2-3 ml of fixing solution comprised of a 2% formaldehyde and 0.2% glutaraldehyde in PBS. The cells were incubated at room temperature for 5 minutes, and then washed twice with PBS. The cells were subsequently incubated at 37° C. (without CO2) for 1 to 16 hours in 2-3 ml of the solution comprising potassium ferricyanide (5 mM), potassium ferrocyanide (5 mM), MgCl2 (2 mM), X-gal (5-bromo-4-chloro-3-indolyl-β-D-galactopyranoside) (1 mg/ml), in citric/phosphate buffer (pH 6.0). The test compounds (about 50 μM) were added to the medium at each passage. […] In this experiment, only senescent cells were stained blue due to the action of β-galactosidase on the substrate.

[4] = system: Rat C6 glioma (ATCC No. CCL107); assay: anti-inflammatory activity: isoproterenol-induced intracellular cAMP synthesis; type: cell-based; settings: cAMP after 30 min with (−)-isoproterenol
Protocol: Anti-inflammatory activity of several of the 6,9-disubstituted purine derivatives of this invention was determined; kinetin was also evaluated as a control. Rat C6 glioma (ATCC No. CCL107) was cultivated in monolayer in serum-free chemically defined medium containing Ham's F10/minimal essential medium (1:1 v/v), 2 mM L-glutamine, 1% (v/v) minimal essential medium vitamins (100×), 1% (v/v) minimal essential medium nonessential amino acids (100×), 100 U/ml penicillin, […], and 30 nM sodium selenite. Incubation was performed at 37° C. in a humidified atmosphere. The assays were performed in the logaritmic growth phase at a density of 2.5×10^5 cells/cm^2. Intracellular cAMP synthesis was induced by addition of 5 mM (−)-isoproterenol; various amounts of test compounds were added at the same time as the (−)-isoproterenol. After 30 min incubation at 37° C., the medium was removed and the cellular amount of cAMP was determined using the cAMP-enzyme immunoassay kit from Amersham. The I50 value was determined from a dose-response curve in duplicate.

photodamaged facial skin = assay: earlier clinical study of topically applied kinetin (0.1%); type: in vivo, human; settings: kinetin 0.1% topical; for Mean Improvement from Baseline: Coarse Wrinkles / Mean Improvement from Baseline: Fine Wrinkles / Mean Improvement from Baseline: Mottled Hyperpigmentation / Mean Improvement from Baseline: Overall Skin Condition / Mean Improvement from Baseline: Roughness: expert evaluation; for Subjects Reporting Improvement from Baseline: Blotchiness / Subjects Reporting Improvement from Baseline: Color / Subjects Reporting Improvement from Baseline: Fine Wrinkles / Subjects Reporting Improvement from Baseline: Texture: self assessment
Description: This Example compares the clinical data for topically applied 6-furfurylamino-9-(2-tetrahydropyranyl)purine (0.10%) taken from Example 23 with similar clinical data generated for topically applied kinetin (0.1%) from an earlier study. The protocol for the earlier clinical trial for kinetin was similar to the protocol as described in Example 23 for the inventive compound; thirty two female volunteers completed the earlier kinetin study. This comparison is based on the expert evaluations and self evaluations of skin condition for eight and twelve week data for some of the parameters evaluated in both studies.

[5] = system: Human forskin fibroblasts (cell line BJ); assay: in vitro cytotoxic activity, MTT assay; type: cell-based; settings: 72 hours; BJ fibroblasts at middle passage
Protocol: In vitro cytotoxic activity of several of the 6,9-disubstituted purine derivatives of this invention against human diploid fibroblasts was determined by standard MTT assay optimized for 96-well plates. The assay is based on spectrofotometric measurement of the product of metabolic conversion of MTT by mitochondria of living cells.
Human forskin fibroblasts (cell line BJ) at middle passage were maintained in 75 cm^2 plastic tissue culture flasks and cultured in cell culture medium (DMEM with 5 g/l glucose, 2 mM glutamine, 100 U/ml penicillin, 100 μg/ml streptomycin, 10% fetal calf serum, and sodium bicarbonate).
About 5,000 cells were seeded per well of the 96-well plate. After 24 hours the cell culture medium was replaced with the cell culture medium containing a test compound. The test compounds were evaluated at six 2-fold dilutions. The highest concentration used in the present study was usually 200 μM. In the case of compounds with limited solubility in the culture medium the highest concentration was adjusted. Every test compound was examined in five replicates. Cells with the test compounds were incubated for 72 hours at 37° C. in 5% CO2 atmosphere and 100% humidity. At the end of the incubation period, the culture medium was replaced with the cell culture medium containing MTT (0.5 mg/ml) and cells were incubated for another 3 hours. The formazan formed was solubilized by DMSO and absorbance at 570 nm was measured. Ability of the tested compounds to inhibit MTT reducing activity of the cells was calculated as IC=(Acompound exposed well−mean Ablank)/(mean Acontrol well−meanAblank)×100%. IC10, the drug concentration causing 10% decrease in MTT reducing activity, was calculated from the obtained dose response curves.

[6] = NIH3T3, 72 hours, highest concentration 166.7 μM

SMILES: c1coc(CNc2ncnc3nc[nH]c23)c1 [Kinetin, N6-furfuryl-adenine]
- GI50 (breast carcinoma MCF-7): > 167 µM
- GI50 (mouse fibroblasts NIH3T3; NIH3T3, 72 h): 155 µM
- GI50 (human osteosarcoma (HOS)): > 167 µM
- GI50 [1]: 164 µM
- morphological and biochemical characteristics associated with serial passaging of cells [2]: delayed the onset and decreased the extent of many morphological and biochemical characteristics associated with serial passaging of cells
- Senescent Cells (%) HCA50 [3]: 5%
- Senescent Cells (%) HCA25 [3]: 3%
- Senescent Cells (%) HCA80 [3]: 38%
- Anti-inflammatory Activity Effect [4]: inactive; also recorded: Not active
- Mean Improvement from Baseline: Coarse Wrinkles (photodamaged facial skin; Eight Week Data): 4%
- Mean Improvement from Baseline: Fine Wrinkles (photodamaged facial skin; Eight Week Data): 2%
- Mean Improvement from Baseline: Mottled Hyperpigmentation (photodamaged facial skin; Eight Week Data): 25%*
- Mean Improvement from Baseline: Overall Skin Condition (photodamaged facial skin; Eight Week Data): 3%
- Mean Improvement from Baseline: Roughness (photodamaged facial skin; Eight Week Data): 35%
- Mean Improvement from Baseline: TEWL (photodamaged facial skin; Eight Week Data): 13%
- Subjects Reporting Improvement from Baseline: Blotchiness (photodamaged facial skin; Eight Week Data): 50%
- Subjects Reporting Improvement from Baseline: Color (photodamaged facial skin; Eight Week Data): 53%
- Subjects Reporting Improvement from Baseline: Fine Wrinkles (photodamaged facial skin; Eight Week Data): 57%
- Subjects Reporting Improvement from Baseline: Texture (photodamaged facial skin; Eight Week Data): 77%
- Mean Improvement from Baseline: Coarse Wrinkles (photodamaged facial skin; Twelve Week Data): 4%
- Mean Improvement from Baseline: Fine Wrinkles (photodamaged facial skin; Twelve Week Data): 6%*
- Mean Improvement from Baseline: Mottled Hyperpigmentation (photodamaged facial skin; Twelve Week Data): 25%*
- Mean Improvement from Baseline: Overall Skin Condition (photodamaged facial skin; Twelve Week Data): 4%*
- Mean Improvement from Baseline: Roughness (photodamaged facial skin; Twelve Week Data): 52%*
- Mean Improvement from Baseline: TEWL (photodamaged facial skin; Twelve Week Data): 15%
- Subjects Reporting Improvement from Baseline: Blotchiness (photodamaged facial skin; Twelve Week Data): 74%
- Subjects Reporting Improvement from Baseline: Color (photodamaged facial skin; Twelve Week Data): 71%
- Subjects Reporting Improvement from Baseline: Fine Wrinkles (photodamaged facial skin; Twelve Week Data): 71%
- Subjects Reporting Improvement from Baseline: Texture (photodamaged facial skin; Twelve Week Data): 87%

SMILES: COc1ccc(CNc2ncnc3c2ncn3C2CCCCO2)cc1 (stereo not drawn) [6-(4-methoxybenzylamino)-9-(2-tetrahydropyranyl)purine]
- IC10 (concentration causing 10% decrease in MTT reducing activity) [5]: >100 µM
- GI50 (breast carcinoma MCF-7): > 167 µM
- GI50 (mouse fibroblasts NIH3T3; [6]): > 167 µM
- GI50 (human osteosarcoma (HOS)): > 167 µM
- GI50 [1]: > 167 µM
- melting point: 137 to 138 °C
- Senescent Cells (%) HCA50 [3]: 3%
- Senescent Cells (%) HCA25 [3]: 4%
- Senescent Cells (%) HCA80 [3]: 26%

SMILES: COc1ccc(CNc2ncnc3c2ncn3C2CCCO2)cc1 (stereo not drawn) [6-(4-methoxybenzylamino)-9-(2-tetrahydrofuranyl)purine]
- GI50 (breast carcinoma MCF-7): > 167 µM
- GI50 (mouse fibroblasts NIH3T3; [6]): > 167 µM
- GI50 (human osteosarcoma (HOS)): > 167 µM
- melting point: 182 to 183 °C

SMILES: COc1cc(CNc2ncnc3c2ncn3C2CCCCO2)cc(OC)c1 (stereo not drawn) [6-(3,5-dimethoxybenzylamino)-9-(2-tetrahydropyranyl)purine]
- IC10 (concentration causing 10% decrease in MTT reducing activity) [5]: >200 µM
- GI50 (breast carcinoma MCF-7): > 167 µM
- GI50 (mouse fibroblasts NIH3T3; [6]): > 167 µM
- GI50 (human osteosarcoma (HOS)): > 167 µM
- IC50 ([4]; Rattus norvegicus, C6 glioma, 0.5 h, read-out: Anti-inflammatory Activity I50): 11 µM
- Anti-inflammatory Activity Effect [4]: Inhibition
